Measurements published in PMC6222558, “Synthesis and Evolution of Berberine Derivatives as a New Class of Antiviral Agents against Enterovirus 71 through the MEK/ERK Pathway and Autophagy” (Molecules : A Journal of Synthetic Chemistry and Natural …, 2018).

Tests used:
Assay type in all cases: cell-based, enterovirus 71 (EV71)
[1] = tested on: EV71 H strain (VR-1432, genotype C2); assay: CPE inhibition assay for anti-EV71, H strain; conditions: Enterovirus A, EV71; Vero cells; CPE; calculated on the organic part; n = 3; read-out: H Strain IC50
Method in brief: (§1)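 Vero cells infected with 100 × TCID50 EV71 for 1 h at 37 °C in serum-free medium, unbound virus removed, then compounds added for 72 h. IC50 from inhibition of virus-induced CPE; TC50 as concentration giving 50% CPE at 72 h, with selectivity index; crystal violet staining for imaging.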

[2] = tested on: EV71 JS-52 strain (genotype C4); assay: CPE inhibition assay for anti-EV71, JS-52 strain; conditions: Enterovirus A, EV71; Vero cells; CPE; calculated on the organic part; n = 3; read-out: JS-52 Strain IC50
Method in brief: as §1

[3] = tested on: EV71 SHZH98 strain (genotype C4); assay: CPE inhibition assay for anti-EV71, SHZH98 strain; conditions: Enterovirus A, EV71; Vero cells; CPE; calculated on the organic part; n = 3; read-out: SHZH98 Strain IC50
Method in brief: as §1

[4] = tested on: EV71 BrCr strain (VR-1775, genotype A); assay: CPE inhibition assay for anti-EV71, BrCr strain; conditions: Enterovirus A, EV71; Vero cells; CPE; calculated on the organic part; n = 3; read-out: BrCr Strain IC50
Method in brief: as §1

EV71-induced CPE = assay: CPE assay with microscopy and crystal violet staining; conditions: 20 μM; Vero cells; better than that of BBR
Experimental: Furthermore, microscopy and crystal violet staining was used to further investigation the anti-EV71 effect of 2d with CPE (cytopathic effect) assay.
The anti-EV71 activities of all tested compounds were detected by the virus-induced CPE assay. Briefly, cells (3 × 10^4 cells/well) were plated into 96-well culture plates and incubated for 16 h. Then, remove the medium and infected cells with EV71 of 100 × TCID50 (50% tissue culture infective doses) in serum-free medium for 1 h at 37 °C. After that, the unbound viruses were removed and various concentrations of tested compounds were supplemented for incubation of another 72 h. […] TC50 defined as the concentration that leads to the 50% of CPE which determined by the same method in 72 h. In addition, the cells were stained the cells were colored with 0.5% crystal violet in 20% ethanol for 15 min at room temperature and the cells were imaged after rinsed with PBS.
Figure 2 The anti-EV71 effect of compound 2d in Vero cells with BBR as a positive control. (A) 2d reduced the EV71-induced CPE. Cells were examined using a microscopy (×40); (B) 2d reduced the EV71-induced CPE. Cells were examined using crystal violet staining; (C) 2d reduced the expression of EV71 VP1 RNA by one-step qRT-PCR assay. ** p < 0.001 * p < 0.05; (D) 2d reduced the expression of EV71 VP1 protein by western blot assay.

EV71 VP1 RNA = EV71 VP1 RNA by one-step qRT-PCR in infected Vero cells; conditions: Vero cells infected with H strain; 24 h; better than BBR
Experimental: (§2) To further confirm the anti-EV71 activity, the VP1 down-regulatory activity of 2d was examined in Vero cells infected with H strain of EV71, in comparison with that of BBR. […] Accordingly, VP1 capsid protein expression was also analyzed to examine its effect on EV71 biological synthesis.
Vero cells (9 × 10^5 cells/well) were plated into 6-well culture plates and incubated for 16 h. The medium was removed and cells were infected with EV71 for 1 h (H). Various concentrations of compound 2d and BBR were supplemented for incubation of another 24 h. Total RNA of the infected cells was isolated using the RNeasy Mini kit (QIAGEN, Hilden, Germany) and the information of the primer was listed in the Table 2.
One-step qRT-PCR was performed with SuperScript III Platinum SYBR Green One-step RT-PCR Kit (Invitrogen, Carlsbad, CA, USA) using the ABI 7500 Fast real-time PCR system (Applied Biosystems, Carlsbad, CA, USA). PCR assay was carried out in a 25 μL volume and the target fragment amplification was carried out as follows: reverse transcription at 50 °C for 3 min; initial activation of HotStar Taq DNA Polymerase at 95 °C for 10 min; 40 cycles in two steps: 95 °C for 15 s, 60 °C for 30 s.

EV71 VP1 protein = EV71 VP1 protein by western blot in infected Vero cells; conditions: Vero cells infected with H strain; better than BBR at 40 μM
Experimental: as §2
Cells were lysed in the M-PER mammalian protein extraction reagent (Thermo, Rockford, IL, USA) containing halt protease inhibitor single-use cocktail (Thermo). The protein concentration was determined by BCA Protein Assay Kit (Thermo). Equal amount of samples (15 μg proteins) were denatured and applied to sodium dodecyl sulfate-polyacrylamide gel electrophoresis (SDS-PAGE), and then electrophoresis products were transferred to a polyvinylidenefluoride (PVDF) film and blocked by 5% (w/v) milk or BSA at room temperature. An hour later, PVDF membranes were incubated at room temperature with specific primary antibody. After a standard washing, membranes were incubated with horse radish peroxidase (HRP)-labeled secondary antibody. The signals were detected using ECL detection kit (GE Healthcare Life Sciences, Pittsburgh, PA, USA). The primary antibodies used in the experiment included β-actin, p-p44/p42 MAPK, p44/p42 MAPK, p-MEK, MEK, p-JNK, JNK, p-AKT, AKT, PI3KIII, LC3B, Beclin-1 (Cell Signaling Technology, Danvers, MA, USA), and EV71-VP1 (Abnova, Taibei, China). […]

COc1ccc2cc3[n+](cc2c1OCC(=O)OCc1ccccc1)CCc1cc2c(cc1-3)OCO2 [2d, 2,3-Methylenedioxy-9-benzyloxyformylmethylenoxy-10-methoxyprotoberberine chloride]
IC50 [1]: 12.4 µM
IC50 [2]: 7.12 µM
IC50 [3]: 14.8 µM
IC50 [4]: 8.52 µM
reduction of EV71-induced CPE (EV71-induced CPE): significantly reduce the EV71-induced CPE
VP1 RNA expression (EV71 VP1 RNA): significantly reduced VP1 RNA expression in a dose-dependently way
VP1 protein expression (EV71 VP1 protein): obviously down-regulate the expression of VP1 protein in a dose-dependent manner
